Laboratory results reported in patent publication US9932335B2 (priority 2013, dated 2018).
Substitutions are numbered along the chain they refer to. Where two headings read alike, the source gives them in different places.

Columns and labels:
human M1 = biological target: T1, human M1 (Homo sapiens, UniProt P11229); experiment: M1 PAM assay (FLIPR intracellular calcium, CHO human M1); format: cell-based
T1 construct: expressed in transfected cells; host or cells: CHO cells
T1 sequence (P11229 1-460): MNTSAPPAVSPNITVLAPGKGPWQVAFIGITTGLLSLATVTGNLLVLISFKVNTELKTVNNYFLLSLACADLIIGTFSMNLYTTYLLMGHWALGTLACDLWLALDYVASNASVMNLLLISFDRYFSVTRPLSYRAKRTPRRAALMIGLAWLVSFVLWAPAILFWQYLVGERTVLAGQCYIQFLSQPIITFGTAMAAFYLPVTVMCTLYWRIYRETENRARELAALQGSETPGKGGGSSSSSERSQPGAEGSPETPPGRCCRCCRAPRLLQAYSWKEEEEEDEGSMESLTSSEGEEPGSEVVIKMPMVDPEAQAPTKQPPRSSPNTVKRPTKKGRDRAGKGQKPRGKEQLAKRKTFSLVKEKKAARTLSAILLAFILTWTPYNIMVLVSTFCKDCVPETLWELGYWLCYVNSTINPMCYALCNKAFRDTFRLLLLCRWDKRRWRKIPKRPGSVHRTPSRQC
Procedure: The assay study the effect of several concentrations of test compounds on basal or acetylcholine-stimulated Ca^2+ levels using FLIPR. CHO human M1 are plated the day before the experiments at 2×10^5 cells/ml in PDL BioCoat 96 well black/clear plate (Becton 35 4640). The cells are grown at 37° C. and 5% CO2 in the following medium: F12 Nut Mix (Gibco 21765), 10% FCS heat inactivated (GIBCO 16000-044), 1% Pen Strep (Gibco, 15140) and 200 μg/ml Geneticin (Gibco 11811). On the day of the experiment, the medium was removed and replaced by 100 μl of dye loading buffer containing Hanks Balanced Salt solution (HBSS, 14065-049, Gibco) with 20 mM HEPES (Gibco 15630-056), 2 mM Probenicid (Sigma P8761), […] (Molecular Probes F-14202), 10% Pluronic acid Molecular Probes P-3000) pH=7.4 and incubated at 37° C. After 60 minutes extracellular dye was removed and the cells were washed five times with FLIPR buffer containing HBSS (Gibco 14065-049) with 20 mM HEPES (Gibco, 15630-056), 2 mM Probenicid (Sigma P8761) pre-warmed at 37° C. using and Ebml cell washer leaving 100 μl of FLIPR buffer in each well. The cell plate and the diluted compounds (1% DMSO final concentration) are placed on the platform of the FLIPR and the door closed. A signal test to check background fluorescence and basal fluorescence signal is performed. Laser intensity is adjusted if necessary. Two minutes preincubation with the diluted test compounds is provide to determine any agonist activity on the M1 receptor by comparison to 30 nM Acetylcholine control. In order to determine any modulator activity the diluted compounds were added to cells and after two minutes preincubation, the EC20 of acetylcholine is added followed by another two minutes preincubation before the measurement of intracellular Ca^2+ with a FLIPR (Molecular Devices).

M1 receptor = biological target: T2, M1 receptor (Rattus norvegicus, UniProt P08482); experiment: M1 PAM assay (FLIPR intracellular calcium), rat; format: cell-based
T2 construct: expressed in transfected cells
T2 sequence (P08482 1-460): T1 sequence (P11229 1-460) with A5V, T254S, P309S, R320K, A337G, I413V

[1] = human M1 in CHO cells, modulator activity with EC20 of acetylcholine, FLIPR Ca2+, read-out: EC50 h PAM
[2] = rat, modulator activity with EC20 of acetylcholine, FLIPR Ca2+, read-out: EC50 rat PAM

Row | Structure (SMILES) | EC50 (human M1; [1]) [nM] | EC50 (M1 receptor; [2]) [nM] | EC50 (human M1) [nM] | EC50 (M1 receptor) [nM]
1 | Cn1cc(-c2ccc(Cn3cc(C(=O)N[C@H]4CCCC[C@@H]4F)c4ncccc43)c(F)c2)cn1 (racemic) [Example 58, 1-(2-fluoro-4-(1-methyl-1H-pyrazol-4-yl)benzyl)-N-((1SR,2SR)-2-fluorocyclohexyl)-1H-pyrrolo[3,2-b]pyridine-3-carboxamide] | 239 | 453 | – | –
2 | Cn1cc(-c2ccc(Cn3cc(C(=O)N[C@H]4CCOC[C@@H]4O)c4ncccc43)c(F)c2)cn1 (single isomer, unassigned) [Example 59, 1-[[2-fluoro-4-(1-methylpyrazol-4-yl)phenyl]methyl]-N-[(3R,4S) or (3S,4R)-3-hydroxyoxan-4-yl]pyrrolo[3,2-b]pyridine-3-carboxamide] | – | – | 15.5 | 18
3 | NC(=O)c1ccc(Cn2cc(C(=O)N[C@@H]3CCOC[C@H]3O)c3ncccc32)cc1 (stereo in doubt) [Example 63a, 1-(4-Carbamoylbenzyl)-N-((3S,4R)-3-hydroxytetrahydro-2H-pyran-4-yl)-1H-pyrrolo[3,2-b]pyridine-3-carboxamide] | – | – | 289 | 661
4 | NC(=O)c1ccc(Cn2cc(C(=O)N[C@H]3CCOC[C@@H]3O)c3ncccc32)cc1 (stereo in doubt) [Example 63b, 1-(4-carbamoylbenzyl)-N-((3R,4S)-3-hydroxytetrahydro-2H-pyran-4-yl)-1H-pyrrolo[3,2-b]pyridine-3-carboxamide] | – | – | 13 | 47
5 | O=C(N[C@H]1CCCC[C@@H]1O)c1cn(Cc2cc(Br)ccc2F)c2cccnc12 [Example 1, 1-(5-bromo-2-fluorobenzyl)-N-((1S,2S)-2-hydroxycyclohexyl)-1H-pyrrolo[3,2b]pyridine-3-carboxamide] | – | – | 545 | 1950
6 | Cn1cc(-c2ccc(Cn3cc(C(=O)N[C@H]4CCCC[C@@H]4O)c4ncccc43)c(F)c2)cn1 [Example 2, 1-(2-fluoro-4-(1-methyl-1H-pyrazol-4-yl)benzyl)-N-((1S,2S)-2-hydroxycyclohexyl)-1H-pyrrolo[3,2-b]pyridine-3-carboxamide] | 9.86 | 34.7 | – | –
7 | Cn1cc(-c2ccc(Cn3cc(C(=O)N[C@@H]4CCCC[C@H]4O)c4ncccc43)c(F)c2)cn1 [Example 3, 1-(2-fluoro-4-(1-methyl-1H-pyrazol-4-yl)benzyl)-N-((1R,2R)-2-hydroxycyclohexyl)-1H-pyrrolo[3,2-b]pyridine-3-carboxamide] | – | – | 101 | 131
8 | O=C(N[C@H]1CCCC[C@@H]1O)c1cn(Cc2ccc(Cl)nc2)c2cccnc12 [Example 5, 1-((6-chloropyridin-3-yl)methyl)-N-((1S,2S)-2-hydroxycyclohexyl)-1H-pyrrolo[3,2-b]pyridine-3-carboxamide] | – | – | 489 | 2320
9 | Cn1cc(-c2ccc(Cn3nc(C(=O)N[C@H]4CCCC[C@@H]4O)c4ncccc43)c(F)c2)cn1 [Example 6, 1-(2-fluoro-4-(1-methyl-1H-pyrazol-4-yl)benzyl)-N-((1S,2S)-2-hydroxycyclohexyl)-1H-pyrazolo[4,3-b]pyridine-3-carboxamide] | 25.3 | 71.5 | – | –
10 | C[C@@H](CO)NC(=O)c1cn(Cc2ccc(-c3cnn(C)c3)cc2F)c2cccnc12 [Example 8, 1-[2-Fluoro-4-(1-methyl-1H-pyrazol-4-yl)-benzyl]-1H-pyrrolo[3,2-b]pyridine-3-carboxylic acid ((S)-2-hydroxy-1-methyl-ethyl)-amide] | – | – | 248 | 695
11 | Cn1cc(-c2ccc(Cn3cc(C(=O)NCC(C)(C)O)c4ncccc43)c(F)c2)cn1 [Example 11, 1-[2-Fluoro-4-(1-methyl-1H-pyrazol-4-yl)-benzyl]-1H-pyrrolo[3,2-b]pyridine-3-carboxylic acid (2-hydroxy-2-methyl-propyl)-amide] | – | – | 317 | 616
12 | CC[C@@H](CO)NC(=O)c1cn(Cc2ccc(-c3cnn(C)c3)cc2F)c2cccnc12 [Example 12, 1-[2-Fluoro-4-(1-methyl-1H-pyrazol-4-yl)-benzyl]-1H-pyrrolo[3,2-b]pyridine-3-carboxylic acid ((S)-1-hydroxymethyl-propyl)-amide] | – | – | 129 | 244
13 | CCC(CO)NC(=O)c1cn(Cc2ccc(-c3cnn(C)c3)cc2F)c2cccnc12 (stereo not drawn) [Example 13, 1-[2-Fluoro-4-(1-methyl-1H-pyrazol-4-yl)-benzyl]-1H-pyrrolo[3,2-b]pyridine-3-carboxylic acid (1-hydroxymethyl-propyl)-amide] | – | – | 195 | 632
14 | CCC(O)CNC(=O)c1cn(Cc2ccc(-c3cnn(C)c3)cc2F)c2cccnc12 (stereo not drawn) [Example 14, 1-[2-Fluoro-4-(1-methyl-1H-pyrazol-4-yl)-benzyl]-1H-pyrrolo[3,2-b]pyridine-3-carboxylic acid (2-hydroxy-butyl)-amide] | 100 | 155 | – | –
15 | Cn1cc(-c2ccc(Cn3cc(C(=O)N[C@H]4CCC[C@@H]4O)c4ncccc43)c(F)c2)cn1 [Example 17, 1-[2-Fluoro-4-(1-methyl-1H-pyrazol-4-yl)-benzyl]-1H-pyrrolo[3,2-b]pyridine-3-carboxylic acid ((1S,2S)-2-hydroxy-cyclopentyl)-amide] | – | – | 64.9 | 272
16 | Cn1cc(-c2ccc(Cn3cc(C(=O)N[C@H]4CCC[C@H]4O)c4ncccc43)c(F)c2)cn1 [Example 18, 1-[2-Fluoro-4-(1-methyl-1H-pyrazol-4-yl)-benzyl]-1H-pyrrolo[3,2-b]pyridine-3-carboxylic acid ((1S,2R)-2-hydroxy-cyclopentyl)-amide] | – | – | 96 | 195
17 | CC(C)[C@@H](CO)NC(=O)c1cn(Cc2ccc(-c3cnn(C)c3)cc2F)c2cccnc12 [Example 19, 1-[2-Fluoro-4-(1-methyl-1H-pyrazol-4-yl)-benzyl]-1H-pyrrolo[3,2-b]pyridine-3-carboxylic acid ((S)-1-hydroxymethyl-2-methyl-propyl)-amide] | – | – | 178 | 285
18 | CCCC(CO)NC(=O)c1cn(Cc2ccc(-c3cnn(C)c3)cc2F)c2cccnc12 (stereo not drawn) [Example 20, 1-[2-Fluoro-4-(1-methyl-1H-pyrazol-4-yl)-benzyl]-1H-pyrrolo[3,2-b]pyridine-3-carboxylic acid (1-hydroxymethyl-butyl)-amide] | – | – | 199 | 499
19 | CC(C)C(CO)NC(=O)c1cn(Cc2ccc(-c3cnn(C)c3)cc2F)c2cccnc12 (stereo not drawn) [Example 22, 1-[2-Fluoro-4-(1-methyl-1H-pyrazol-4-yl)-benzyl]-1H-pyrrolo[3,2-b]pyridine-3-carboxylic acid (1-hydroxymethyl-2-methyl-propyl)-amide] | – | – | 183 | 381
20 | Cn1cc(-c2ccc(Cn3cc(C(=O)NCC4(O)CCCC4)c4ncccc43)c(F)c2)cn1 [Example 24, 1-[2-Fluoro-4-(1-methyl-1H-pyrazol-4-yl)-benzyl]-1H-pyrrolo[3,2-b]pyridine-3-carboxylic acid (1-hydroxy-cyclopentylmethyl)-amide] | 193 | 261 | – | –
21 | CC[C@H](C)[C@@H](CO)NC(=O)c1cn(Cc2ccc(-c3cnn(C)c3)cc2F)c2cccnc12 [Example 26, 1-[2-Fluoro-4-(1-methyl-1H-pyrazol-4-yl)-benzyl]-1H-pyrrolo[3,2-b]pyridine-3-carboxylic acid ((1S,2S)-1-hydroxymethyl-2-methyl-butyl)-amide] | 143 | 302 | – | –
